Data as given in patent US4990337A (priority 1988, dated 1991).

Assay: Test Example 2: emulsifiability of intermediate molecular weight fatty acid glycerides in water, test tube shaking
Format: physicochemical
Conditions: 1 ml glyceride and 9 ml water; for stability of the emulsion (separation between oil and water): on standing; for Emulsifiability: test tube shaken
Experimental: 1 ml of an intermediate molecular weight fatty acid glyceride and 9 ml of water were placed in a test tube, and the test tube was shaken lightly to examine the emulsifiability of the intermediate molecular weight fatty acid glyceride.
The intermediate molecular weight fatty acid glycerides examined in this Example were caprylic acid mono-, di- and tri- glycerides and caproic acid diglyceride.

Molecule	stability of the emulsion (separation between oil and water)	Emulsifiability
CCCCCCCC(=O)OCC(COC(=O)CCCCCCC)OC(=O)CCCCCCC [Caprylic acid triglyceride]	tended to separate into oil and water	emulsified only after vigorous shaking by hand
Caproic acid diglyceride		intermediate emulsifiability
Caprylic acid monoglyceride	the emulsion was very stable	emulsified in a manner very close to self-emulsification
caprylic acid diglyceride		intermediate emulsifiability
